Holding throughout (type): cell-based
Test [1] has as its system glioma MGMT− and MGMT+ cell lines. Nature of the test: MTT assay, glioma lines as a whole. As to conditions: glioma MGMT− and MGMT+ cell lines. The text has this: (§1) This assay was first described in Mosmann, T., 1983, “Rapid colorimetric assay for cellular growth and survival: Application to proliferation and cytotoxicity assays”, Journal of Immunological Methods, Vol. 65, Nos. 1-2, pp. 55-63.
(§2) Glioma cell lines, SNB19 and U373, both MGMT transfected (i.e., SNB19M and U373M) and vector controls (i.e., SNB19V and U373V); colorectal carcinoma cell lines, HCT116, HT29, and DLD1; melanoma cell line, SKMEL-28; breast cell line, MCF-7; and normal human fetal lung fibroblast cell line, MRC-5; were harvested at 60-80% confluence—during the logarithmic phase of growth.
(§3) Following harvesting, cells in suspension were gently syringed through a 23 gauge needle to obtain a near-single cell suspension. The desired cell seeding densities were used and added into 96-well plates in 180 μL culture medium if only one test compound was to be added, or 160 μL if two test compounds were to be added in combination, which were allowed to attach at 37° C. (5% CO2) overnight. For the 7 day assay, the cell seeding density for different cell lines was as follows: SNB19V, SNB19M: 650 cells/well; U373V, U373M: 650 cells/well; SNB19VR, U373VR: 650 cells/well; HCT116, DLD-1, SKMEL-28, MRC-5, MCF-7: 400 cells/well.
The two peripheral lanes were used as blank wells (cell free) and filled with 200 μL of medium in order to minimise medium evaporation from the plate. A separate time zero (T0) plate was set up alongside other plates. Serial dilutions in tissue culture medium of a 100 mM stock of test compound in DMSO were prepared immediately before each assay to ten times the final concentrations required, and then 20 μL was added to each well (200 μL total media per well) to achieve final concentrations of 0.5 μM, 1 μM, 5 μM, 10 μM, 50 μM, 100 μM, 500 μM, and 1000 μM. A minimum of four wells received the same test compound concentration. To control wells, including those in the T0 plate, 20 μL of medium was added. Previous assays had been carried out to verify that cell viability was not affected by the amount of DMSO added into the test compound-treated wells. A separate plate treated in the same way, but free of test compound, was used as a measure of cell viability at the time of drug addition (day 0).
After incubation at 37° C., 5% CO2 for 7 days (or immediately for the day 0 plate), cell viability was quantified using the MTT assay. 50 μL of sterile filtered MIT (3-(4,5-dimethylthiazol-2-yl)-2,5-diphenyltetrazolium bromide) (2 mg/mL in phosphate buffered saline) were added to each well (final concentration 0.4 mg/mL) and the plates were re-incubated for 4 hours to allow metabolic conversion of MTT by dehydrogenases in viable cells to insoluble formazan crystals. The medium and any unconverted MTT was aspirated, 150 μL of DMSO was added to each well, and the plates were shaken on a plate shaker (Stuart Scientific 503) to ensure complete formazan solubilisation.
The intensity of absorbance is directly proportional to cell viability. A linear relationship exists between cell number and the amount of formazan and so the mean absorbance determined for each well of the same concentration can be used as a quantitative measure of viable cells compared to the controls. A graph of absorbance against drug concentration was plotted and the test compound concentration (GI50) causing 50% inhibition of control cell growth (absorbance increase from day 0) was calculated by interpolation.
For orientation: Formazan colour is commonly taken as a measure of viable cells.

Test [2] deals with Normal Human Fetal Lung Fibroblast MRC-5. Kind of test: MTT assay for 7-day toxicity assay. As for the experimental part:
(§4) The cell culture techniques were carried out in a Class II microbiological safety cabinet which was swabbed with 70% IMS in distilled water before each use. Glioma cells were routinely cultured in Costar tissue culture flasks in RPMI 1640 liquid medium (containing 0.3 g/L L-glutamine and 2 g/L sodium bicarbonate) supplemented with 10% heat inactivated FBS (55-59° C.) for 1 hour to denature complement proteins which would otherwise evoke a cellular immune response resulting in cell lysis, 1% non-essential amino acids, 50 μg/mL gentamicin and 400 μg/mL G418 (vector selected reagent). Colorectal and melanoma cells were maintained in RPMI 1640 supplemented with 10% FBS. MRC-5 cells were cultured in EMEM. Cells were grown in a humidified incubator containing 5% CO2 at 37° C. Cells were sub-cultured when growth exceeded approximately 80% confluence, normally twice weekly. The medium was aspirated from the flask and approximately 0.8 mL trypsin-EDTA 1× solution added. The cells were re-incubated at 37° C. until they visibly detached from the flask. The cell suspension was then re-suspended in 5 mL medium and 0.5-1 mL of the cell suspension was transferred to a new flask (25 cm^2) with 7 mL culture medium. The cells were further incubated at 37° C. incubator. Cells were disposed after passage nearly 30 times in order to minimize phenotypic drift. New batches of cells were taken from liquid nitrogen storage by thawing rapidly (37° C. water bath) and re-suspension in a 25 cm^2 flask with 10 mL of culture medium. Two passages were allowed to resume normal growth. For long-term maintenance, viable cells at 60-80% confluence were detached by minimum amount of trypsin/EDTA and re-suspended in sterile filtered freezing medium (95% FBS, 5% DMSO), transferred to sterile cryogenic vials, and frozen overnight at −20° C. followed by −80° C. for 1-2 days and stored in liquid nitrogen for long term storage.
(§5) Most test compounds, including temozolomide, were prepared as stock solution (100 mM) in DMSO and stored at −20° C. for not more than 6 months.
as §1, §2, §3
(§6) The two peripheral lanes were used as blank wells (cell free) and filled with 200 μL of medium in order to minimise medium evaporation from the plate. A separate time zero (T0) plate was set up alongside other plates. Serial dilutions in tissue culture medium of a 100 mM stock of test compound in DMSO were prepared immediately before each assay to ten times the final concentrations required, and then 20 μL was added to each well (200 μL total media per well) to achieve final concentrations of 0.5 μM, 1 μM, 5 μM, 10 μM, 50 μM, 100 μM, 500 μM, and 1000 μM. A minimum of four wells received the same test compound concentration. […]

The test system of test [3] is Colon DLD1. Nature of the test: MTT assay for 7-day toxicity assay. As for the experimental part: as §4, §5, §1, §2, §3, §6
For test [4], the system named is Colon HCT116 (MMR mutated). Kind of test: MTT assay for 7-day toxicity assay. As for the experimental part:
as §4, §5, §1, §2, §3, §6

Setting [5] is: Homo sapiens, MRC5, 168 h, Normal Human Fetal Lung Fibroblast MRC-5, 7-day MTT, single determinations, read-out: GI50.
[6] abbreviates: Normal Human Fetal Lung Fibroblast MRC-5, 7-day MTT, single determinations, read-out: GI50.
The mark [7] stands for this setting: Homo sapiens, DLD-1, 168 h, Colon DLD1, 7-day MTT, single determinations, read-out: GI50.
[8] abbreviates: Homo sapiens, HCT-116, 168 h, Colon HCT116 (MMR mutated), 7-day MTT, single determinations, read-out: GI50.
The mark [9] stands for this setting: Homo sapiens, MRC5, Normal Human Fetal Lung Fibroblast MRC-5, read-out: GI50.
Setting [10] is: Normal Human Fetal Lung Fibroblast MRC-5, read-out: GI50.
The mark [11] stands for this setting: Homo sapiens, DLD-1, Colon DLD1, read-out: GI50.
[12] abbreviates: Colon HCT116 (MMR mutated), read-out: GI50.
Setting [13] is: Homo sapiens, HCT-116, Colon HCT116 (MMR mutated), read-out: GI50.
The mark [14] stands for this setting: Colon HCT116 (MMR mutated), 7-day MTT, single determinations, read-out: GI50.

Structures are written as SMILES. Several values for one entry are separate records, joined by “and”; a condition that tells them apart may be missing. Equal values may be shown once. Read-outs that look alike come from different tables or passages of the source.

Take `C#CCn1nnc2c(C(N)=O)ncn2c1=O` [EE-001, 3-Propargyl-8-carbamoylimidazotetrazin-4-one]: the activity in words result in test [1] is “more potent than TMZ”. In addition, the GI50 in test [2] (setting [5]) is 56.1 µM; in test [2] (setting [6]), 66.6 µM; in test [3] (setting [7]) it was 29.9 µM; in test [4] (setting [8]) it was 59.9 µM.

`C[S+]([O-])Cn1nnc2c(C(N)=O)ncn2c1=O` (stereo not shown) [UU-003, 3-Methanesulfinylmethyl-4-oxo-3,4-dihydro-imidazo[5,1-d][1,2,3,5]tetrazine-8-carboxylic acid amide]: the activity in words entry in test [1] is “surprising efficacy”. Besides, the GI50 was 56.8 µM in test [2] (setting [9]); 55.2 µM and 52.1 µM in test [2] (setting [10]); 9.3 µM in test [3] (Colon DLD1, read-out: GI50); 8.2 µM in test [3] (setting [11]); 5.3 µM and 5 µM in test [4] (setting [12]); 6.7 µM in test [4] (setting [13]).

Take `CCOC(=O)Cn1nnc2c(C(N)=O)ncn2c1=O` [PX-016]: in test [1], the activity in words entry is “surprising efficacy”. Further, the GI50 in test [2] (setting [5]) was determined as 109 µM; in test [2] (setting [6]), 197 µM; in test [3] (setting [7]), 61.1 µM; in test [4] (setting [14]), 66 µM; in test [4] (setting [8]) it was 65.2 µM.

For `COCn1nnc2c(C(N)=O)ncn2c1=O` [PX-020], the activity in words result in test [1] is reported as “surprising efficacious”. Further, the concentration for 50% growth inhibition (GI50) in test [2] (setting [9]) is 61.6 µM; in test [2] (setting [10]), 51.5 µM and 74.1 µM; in test [3] (setting [11]), 55.4 µM; in test [4] (setting [12]), 47.4 µM and 52.4 µM and 56.1 µM and 29.5 µM; in test [4] (setting [13]), 57.4 µM.

`NC(=O)c1ncn2c(=O)n(CCl)nnc12` [PX-030]: the figures for the GI50 in test [2] (setting [9]), in test [2] (setting [10]) and in test [4] (setting [13]) were 50.9 µM, 67.2 µM and 22.3 µM, respectively.

For `Cn1nnc2c(C(N)=O)ncn2c1=O` [TMZ, 3-Methyl-4-oxo-3,4-dihydro-imidazo[5,1-d][1,2,3,5]tetrazine-8-carboxylic acid amide, reference compound], the activity in words entry in test [1] was “demonstrably more active in the glioma lines which are MGMT−”. In addition, the concentration for 50% growth inhibition (GI50) in test [2] (setting [5]) came out at 441 µM; in test [2] (Homo sapiens, MRC5, Normal Human Fetal Lung Fibroblast MRC-5, average of Table 1, read-out: TMZ GI50 Average), 449 µM; in test [2] (setting [9]), 449 µM; in test [2] (setting [6]) it was 458 µM; in test [3] (setting [7]), 435 µM; in test [3] (setting [11]) it was 435 µM. The GI50 in test [3] (Homo sapiens, DLD-1, Colon DLD1, average of Table 1, read-out: TMZ GI50 Average) was 435 µM; in test [4] (setting [14]) it was 570 µM and 594 µM; in test [4] (setting [8]), 607 µM; in test [4] (Homo sapiens, HCT-116, Colon HCT116 (MMR mutated), average of Table 1, read-out: TMZ GI50 Average), 591 µM; in test [4] (setting [13]), 591 µM.

Consider `C[C@H](c1ccccc1)n1nnc2c(C(N)=O)ncn2c1=O` [BB-001, (R)-3-(-1-Phenylethyl)-8-carbamoylimidazotetrazin-4-one], for which the GI50 in test [2] (setting [5]) was 174 µM; in test [3] (setting [7]), 80.6 µM; in test [4] (setting [14]), 194 µM; in test [4] (setting [8]) it was 151 µM.

With `C[Si](C)(C)CCOCn1nnc2c(C(N)=O)ncn2c1=O` [PX-021], the activity in words entry in test [1] is “surprising efficacious”. Moreover, the GI50 in test [2] (setting [9]) was 48.6 µM; in test [2] (setting [10]), 65.4 µM; in test [3] (setting [11]), 53.7 µM; in test [4] (setting [12]) it was 39.8 µM and 36.6 µM and 40.1 µM; in test [4] (setting [13]), 33.6 µM.

Broadly, the GI50 is the concentration giving 50% growth inhibition.
